According to patent US9669112B2, “Animal model of neuronal injury” (The J. David Gladstone Institutes, priority 2012, dated 2017):
“Also recorded” adds a separate entry of the source.

Tests used:
[1] = test system: wild-type mice; assay: Morris water maze after chronic intracerebroventricular infusion of fibrinogen; format: in vivo; conditions: ICV infusion 5 mg/ml, 14-day Alzet pump; tested 24 hours after last learning trial; vs ACSF
Method: Fibrinogen was delivered to the central nervous system (CNS) of wild-type mice by ICY. Briefly, fibrinogen (5 mg/ml) or artificial cerebrospinal fluid (ACSF), a control, was infused into the CNS of the mice using 14-day Alzet pumps through a cannula implanted in the right lateral ventricle. The concentration of the fibrinogen solution was selected based on its physiological range in the plasma. Five days after pump implantation, the mice were trained in the Morris water maze and tested after removal of the target platform 24 hours after the last learning trial. […] To control for visual discriminative ability, the same mice located a clearly visible black platform 2 h after the last trial.

[2] = test system: wild-type mice; assay: Contextual fear conditioning test after stereotactic injection in the dentate gyrus; format: in vivo; conditions: single injection 5 μg in dentate gyrus; day 7 post-injection; vs ACSF
Method: To assess the effect of an increase in the local concentration of fibrinogen in a specific region of interest in the brain, mice received a single stereotactic injection of either 5 μg fibrinogen (1 μl of 5 mg/ml fibrinogen) or 1 μl control (ACSF) in the dentate gyrus. The effects on memory retrieval were assessed in the contextual fear conditioning test (Riley C et al., (2012) Expert review of neurotherapeutics 12(3):323-333.). Mice were placed in a novel environment and given a brief foot shock (training day; day 6 post injection). Memory was assessed by placing the mice in the same environment again one day after the training day (testing day, day 7 post-injection) and freezing (anxiety) behavior was recorded. Percentage of freezing is a direct measure of memory retrieval.

[3] = test system: neurons in the dentate gyrus; assay: NeuN and IBA-1 antibody staining of hippocampus after injection in the dentate gyrus; format: in vivo, mice; conditions: 5 μg in dentate gyrus, day 7 post injection
[4] = test system: dendritic spines; assay: Golgi staining of dendritic spines after stereotactic injection into the cortex; format: in vivo; conditions: 3 days later, compared to ACSF controls
Text: Fibrinogen injection in the cortex reduces dendritic spine density. Dendritic spines are the major site of excitatory synaptic inputs in the brain (Nimchinsky E A, et al., Annu Rev Physiol. 64:313-353). Novel spine formation and pre-existing spine elimination reflect the structural consequences of dynamic changes in neuronal activity at the cellular level (Grutzendler J & Gan W B (2006) NeuroRx 3(4):489-496; Trachtenberg J T et al., (2002) Nature 420(6917):788-794; Grutzendler J et al. (2002) Nature 420(6917):812-816.). Thus, dynamic changes in spine numbers and morphology are considered the cellular mechanisms underlying memory and learning (Holtmaat A et al. (2006) Nature 441 (7096):979-983). To assess the effect of a local concentration of fibrinogen on spine morphology, we injected fibrinogen by stereotactic injection into the cortex, and the brains were examined 3 days later by Golgi staining. Fibrinogen reduced the density of dendritic spines by 33%, compared to ACSF controls (FIG. 4).

[5] = test system: corpus callosum; assay: Demyelination and microglial activation after stereotactic injection into the corpus callosum; format: in vivo, mice
Text: Fibrinogen was stereotactically injected at physiological concentrations into the corpus callosum.
The experiment described in Example 4 was repeated using different mouse strains to investigate the possibility that the neuronal damage induced by fibrinogen was limited to mice with particular genetic backgrounds. […] This is particularly significant as in the traditional model for multiple sclerosis, experimental allergic encephalomyelitis (EAE), different strains of mice show varying degrees of susceptibility to EAE. EAE is a T cell-mediated autoimmune disease that can be induced in experimental animals by immunization with myelin antigens. The susceptibility to myelin antigens ranges from highly susceptible SJL/J mice to resistant B10.S mice.

[6] = test system: spinal cord; assay: Demyelination and microglia activation after stereotactic injection into the spinal cord; format: in vivo, wild-type mice; conditions: single injection at physiological concentrations; after 7 days
Text: Either ACSF or fibrinogen was stereotactically injected at physiological concentrations into the spinal cord of wild-type mice (each Group n=3-4). […] The % area for IBA-1 staining indicates a percentage of the mean area of CD3 or IBA-1 immunoreactivity in the predefined area on spinal cord sections.

[7] = test system: microglia; assay: Acute microglial responses in vivo after injection into the cortex with a glass microelectrode; design: species or system Cx3cr1GFPI+ mice
Method: To directly address whether fibrinogen alone was sufficient to trigger acute microglial responses in the CNS, fibrinogen was injected into the cortex of Cx3cr1GFPI+ mice using a glass microelectrode. Control electrodes were also used containing ACSF or albumin (5 mg/ml). Injection of […] of a 3-6 mg/ml fibrinogen solution, which approximates the physiological concentration of fibrinogen in plasma, caused rapid extension of microglial processes toward the tip of the electrode within […] of the injection. The size of the fibrin deposit remains unaltered, and the microglial response to fibrin persists for at least 6 hours.
The levels of microglia were quantified in vivo usingantibodies against IBA-1 (Ahmed Z, supra).

[8] = test system: microglia; assay: Microglial activation 3 days after stereotactic injections of fibrinogen or plasma; format: in vivo, mice; conditions: 3 days after stereotactic injection; fibrinogen 6-10 mg/ml
Method: FIG. 8 is a bar graph illustrating the quantification of microglial immunoreactivity from mouse brain sections 3 days after stereotactic injections of fibrinogen, ACSF or albumin protein control, or plasma isolated from wt, Fib-l-, Fib_390-396A mice (n=6 mice per condition). The bar graph represents the mean (*P<0.05, **P<0.01, one-way ANOVA).
Higher concentrations of fibrinogen were introduced (6-10 mg/ml), as well as ACSF, albumin, or plasma isolated from wt, Fib-l-, Fib_390-396A mice (n=6 mice per condition).

## fibrinogen
[1]
  memory recall (crossings of the target platform, time spent in the target quadrant): impaired memory recall
[2]
  percentage of freezing (memory retrieval): significant decrease; also recorded: impaired memory retrieval
[3]; hippocampal tissue
  microglial activation (IBA-1 antibody staining): increased microglial activation; also recorded: increase in IBA-1 staining
[3]; hippocampus
  NeuN immunoreactivity (neuronal loss): dramatic decrease; also recorded: reduction in NeuN staining
[4]
  reduction of density of dendritic spines: 33%
[5]; C57BL/6 mice (B6)
  demyelination in the corpus callosum: significant demyelination
  microglial activation in the corpus callosum: microglial activation
[5]; SJL/J mice (SJL)
  demyelination in the corpus callosum: significant demyelination
  microglial activation in the corpus callosum: microglial activation
[5]; corpus callosum injection
  time to induction of microglial activation: ≤ 1 days
[5]; single injection at physiological concentrations, after 7 days
  demyelination in the corpus callosum: induced demyelination
[6]
  demyelination in the spinal cord: spontaneously induced demyelination
  microglia activation in the spinal cord (IBA-1 staining): microglia activation
[7]; 3-6 mg/ml, compared to ACSF or albumin
  microglial responses (quantification): robust and statistically significant increase
[7]; 5-10 μl of 3-6 mg/ml solution into cortex
  persistence of microglial response to fibrin: at least 6 hours
[8]
  microglial activation 3 days after injection: formed a deposit that is surrounded by microglial processes
